Laboratory results from US10414774B2, “Compound useful for altering the levels of bile acids for the treatment of diabetes and cardiometabolc disease” (Merck Sharp & Dohme Corp., priority 2016, dated 2019).

Target: T1, Human CYP8B1 (Homo sapiens, UniProt Q9UNU6)
T1 sequence (Q9UNU6 1-501): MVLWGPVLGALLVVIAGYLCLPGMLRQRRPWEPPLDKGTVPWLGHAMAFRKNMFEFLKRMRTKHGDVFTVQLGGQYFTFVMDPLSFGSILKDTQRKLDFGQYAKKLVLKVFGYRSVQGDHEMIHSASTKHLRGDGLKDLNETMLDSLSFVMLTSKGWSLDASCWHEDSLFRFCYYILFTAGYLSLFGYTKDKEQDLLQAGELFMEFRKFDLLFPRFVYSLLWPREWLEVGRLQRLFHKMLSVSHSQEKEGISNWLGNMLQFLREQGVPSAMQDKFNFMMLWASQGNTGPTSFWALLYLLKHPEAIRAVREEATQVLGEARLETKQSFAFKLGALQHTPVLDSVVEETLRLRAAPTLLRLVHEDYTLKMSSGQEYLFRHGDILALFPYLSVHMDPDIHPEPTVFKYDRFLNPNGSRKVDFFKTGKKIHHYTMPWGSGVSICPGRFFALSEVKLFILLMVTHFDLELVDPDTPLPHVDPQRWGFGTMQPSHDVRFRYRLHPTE
Experiment: Human CYP8B1 Liver Microsome Assay
Conditions: Human CYP8B1 IC50, human liver microsomes; substrate 7a-hydroxy-4-cholesten-3-one, NADPH; RapidFire MS detection of 7α,12α-dihydroxy-4-cholesten-3-one
Protocol: To a 384 well polypropylene plate (Corning 3656), 250 nl of inhibitor in 100% DMSO (1.25% final DMSO concentration) was pre-plated using an Echo liquid handler (Labcyte Inc.). Human liver microsomes (Xenotech) were diluted in of 0.1 M phosphate buffer, pH 7.4, at a concentration of 65 μg/ml and 15 μL was added to the 384 well plate. The plates were incubated at ambient room temperature for 30 minutes. After pre-incubation with inhibitor, the reaction was initiated by adding 5 μl of substrate solution (4.0 μM 7a-hydroxy-4-cholesten-3-one (Toronto Research Chemicals), 2 mM of NADPH (Sigma), 0.1 M phosphate buffer (pH 7.4). The reaction was carried out for 45 minutes at ambient room temperature and was quenched by the addition of 50 μl of acetonitrile+0.1% vol/vol formic acid (FA)+300 nM 7α-hydroxy-4-cholesten-3-one-d7 (Toronto Research Chemicals). The plates were sealed and centrifuged at 3000 rpm for 5 minutes. Plates were loaded onto the Agilent RapidFire RF300 HTMS system, wherein samples were sipped for 600 ms, and the sip sensor detection signals the diversion of sample from the loop onto a C4 solid phase extraction (SPE) cartridge, where salts are washed off for 2500 ms with a mobile phase of water with 0.1% vol/vol FA at a flow rate of 1.5 ml/min. The column path was switched, and the sample was eluted off the cartridge and flowed into the mass spectrometer for 3000 ms with a mobile phase of acetonitrile and 0.1% vol/vol FA at a flow rate of 1.25 ml/min. The aspirator tip was washed separately with water and acetonitrile between sample aspirations (each for 600 ms) to minimize carryover contamination. Mass spectrometry was carried out using a Sciex API4000 triple quadrupole mass spectrometer (Applied Biosystems, Concord, ON, Canada) equipped with electrospray ionization (ESI) operated in the positive-ion mode. The product 7α,12α-dihydroxy-4-cholesten-3-one and internal standard 7α-hydroxy-4-cholsten-3-one-d7 were detected using multiple reaction monitoring (MRM) with Q1/Q3 transitions at m/z 417.3 to 381.3 and m/z 408.3 to 390.3, respectively, with a dwell time of 100 ms and a collision energy of 24 V for each transition. The mass spectrometer used an ESI voltage of 5000 V and a source temperature of 650° C. Extracted ion chromatograms for each transition were integrated and processed using the RapidFire Integrator software. The data for each well were normalized by monitoring product conversion with the ratio of AUCproduct/(AUCinternal standard). The data was then fitted to a four parameter logistic fit using ActivityBase Software to calculate an IC50 of the inhibitor.

C[C@@H]1CN(c2c(C#N)cnc3c(Cl)cccc23)CC[C@@H]1C(=O)N1CCn2c(nnc2C(F)(F)F)C1 [Example 14, 8-chloro-4-[(3S,4S)-3-methyl-4-{[3-(trifluoromethyl)-5,6-dihydro[1,2,4]triazolo[4,3-a]pyrazin-7(8H)-yl]carbonyl}piperidin-1-yl]quinoline-3-carbonitrile]
IC50: 1.7 nM

C[C@@H]1CN(c2c(C#N)cnc3c(F)c(Cl)c(F)cc23)CC[C@@H]1C(=O)N1CCn2c(nnc2C(F)(F)F)C1 [Example 15, 7-chloro-6,8-difluoro-4-[(3S,4S)-3-methyl-4-{[3-(trifluoromethyl)-5,6-dihdyro[1,2,4]triazolo[4,3-a]pyrazin-7(8H)-yl]carobnyl}piperidin-1-yl]quinoline-3-carbonitrile]
IC50: 1 nM

C[C@@H]1CN(c2c(C#N)cnc3cc(C(F)(F)F)ccc23)CC[C@@H]1C(=O)N1CCn2c(nnc2C(F)(F)F)C1 [Example 16, 4-[(3S,4S)-3-methyl-4-{[3-(trifluoromethyl)-5,6-dihydro[1,2,4]triazolo[4,3-a]pyrazin-7(8H)-yl]carbonyl}piperidin-1-yl]-7-(trifluoromethyl)quinoline-3-carbonitrile]
IC50: 0.38 nM

C[C@@H]1CN(c2c(C#N)cnc3c(F)c(C(F)(F)F)ccc23)CC[C@@H]1C(=O)N1CCn2c(nnc2C(F)(F)F)C1 [Example 17, 8-fluoro-4-[(3S,4S)-3-methyl-4-{[3-(trifluoromethyl)-5,6-dihydro[1,2,4]triazolo[4,3-a]pyrazin-7(8H)-yl]carbonyl}piperidin-1-yl]-7-(trifluoromethyl)quinoline-3-carbonitrile]
IC50: 0.36 nM

COc1cc(Cl)cc2c(N3CC[C@H](C(=O)N4CCn5c(nnc5C(F)(F)F)C4)[C@H](C)C3)c(C#N)cnc12 [Example 18, 6-chloro-8-methoxy-4-[(3S,4S)-3-methyl-4-{[3-(trifluoromethyl)-5,6-dihydro[1,2,4]triazolo[4,3-a]pyrazin-7(8H)-yl]carbonyl}piperidin-1-yl]quinoline-3-carbonitrile]
IC50: 0.53 nM

COc1ccc2c(N3CC[C@H](C(=O)N4CCn5c(nnc5C(F)(F)F)C4)[C@H](C)C3)c(C#N)cnc2c1C [Example 19, 7-methoxy-8-methyl-4-[(3S,4S)-3-methyl-4-{[3-(trifluoromethyl)-5,6-dihydro[1,2,4]triazolo[4,3-a]pyrazin-7(8H)-yl]carbonyl}piperidin-1-yl]quinoline-3-carbonitrile]
IC50: 0.2 nM

COc1cc2ncc(C#N)c(N3CC[C@H](C(=O)N4CCn5c(nnc5C(F)(F)F)C4)[C@H](C)C3)c2cc1Br [Example 20, 6-bromo-7-methoxy-4-[(3S,4S)-3-methyl-4-{[3-(trifluoromethyl)-5,6-dihydro[1,2,4]triazolo[4,3-a]pyrazin-7(8H)-yl]carbonyl}piperidin-1-yl]quinoline-3-carbonitrile]
IC50: 0.24 nM

C[C@@H]1CN(c2c(C#N)cnc3nc(C(F)(F)F)ccc23)CC[C@@H]1C(=O)N1CCn2c(nnc2C(F)(F)F)C1 [Example 21, 4-[(3S,4S)-3-methyl-4-{[3-(trifluoromethyl)-5,6-dihydro[1,2,4]triazolo[4,3-a]pyrazin-7(8H)-yl]carbonyl}piperidin-1-yl]-7-(trifluoromethyl)-1,8-naphthyridine-3-carbonitrile]
IC50: 4.81 nM

C[C@@H]1CN(c2c(C#N)cnc3cc(OC(F)(F)F)ccc23)CC[C@@H]1C(=O)N1CCn2c(nnc2C(F)(F)F)C1 [Example 22, 4-[(3S,4S)-3-methyl-4-{[3-(trifluoromethyl)-5,6-dihydro[1,2,4]triazolo[4,3-a]pyrazin-7(8H)-yl]carbonyl}piperidin-1-yl]-7-(trifluoromethoxy)quinoline-3-carbonitrile]
IC50: 0.22 nM

C[C@@H]1CN(c2c(C#N)cnc3cc(C(F)F)ccc23)CC[C@@H]1C(=O)N1CCn2c(nnc2C(F)(F)F)C1 [Example 23, 7-(difluoromethyl)-4-((3S,4S)-3-methyl-4-(3-(trifluoromethyl)-5,6,7,8-tetrahydro-[1,2,4]trizolo[4,3-a]pyrazine-7-carbonyl)piperidin-1-yl)quinolone-3-carbonitrile]
IC50: 0.5 nM

C[C@@H]1CN(c2c(C#N)cnc3cc(C(F)(F)F)ccc23)CC[C@@H]1C(=O)N1CCn2c(nnc2C(F)(F)F)C1 [Example 24, 4-((3S,4S)-3-methyl-4-(3-(trifluoromethyl)-5,6,7,8-tetrahydro-[1,2,4]triazolo[4,3-a]pyrazine-7-carbonyl)piperidin-1-yl)-7-(trifluoromethyl)quinoline-3-carbonitrile]
IC50: 0.4 nM

C[C@@H]1CN(c2c(C#N)cnc3cc(F)c(F)cc23)CC[C@@H]1C(=O)N1CCn2c(nnc2C(F)(F)F)C1 [Example 25, 6,7-difluoro-4-[(3S,4S)-3-methyl-4-{[3-(trifluoromethyl)-5,6-dihydro[1,2,4]triazolo[4,3-a]pyrazin-7(8H)-yl]carbonyl}piperidin-1-yl]quinoline-3-carbonitrile]
IC50: 0.36 nM

C[C@@H]1CN(c2c(C#N)cnc3c(F)cc(F)cc23)CC[C@@H]1C(=O)N1CCn2c(nnc2C(F)(F)F)C1 [Example 26, 6,8-difluoro-4-[(3S,4S)-3-methyl-4-{[3-(trifluoromethyl)-5,6-dihydro[1,2,4]triazolo[4,3-a]pyrazin-7(8H)-yl]carbonyl}piperidin-1-yl]quinoline-3-carbonitrile]
IC50: 0.49 nM

C[C@@H]1CN(c2c(C#N)cnc3cc(Cl)ccc23)CC[C@@H]1C(=O)N1CCn2c(nnc2C(F)(F)F)C1 [Example 27, 7-chloro-4-[(3S,4S)-3-methyl-4-{[3-(trifluoromethyl)-5,6-dihydro[1,2,4]triazolo[4,3-a]pyrazin-7(8H)-yl]carbonyl}piperidin-1-yl]quinoline-3-carbonitrile]
IC50: 0.74 nM

COc1ccc2c(N3CC[C@H](C(=O)N4CCn5c(nnc5C(F)(F)F)C4)[C@H](C)C3)c(C#N)cnc2c1 [Example 28, 7-methoxy-4-[(3S,4S)-3-methyl-4-{[3-(trifluoromethyl)-5,6-dihdyro[1,2,4]triazolo[4,3-a]pyrazin-7(8H)-yl]carbonyl}piperidin-1-yl]quinoline-3-carbonitrile]
IC50: 0.61 nM

Cc1nc2ccc(F)cc2c(N2CC[C@H](C(=O)N3CCn4c(nnc4C(F)(F)F)C3)[C@H](C)C2)c1C#N [Example 29, 6-fluoro-2-methyl-4-[(3S,4S)-3-methyl-4-{[3-(trifluoromethyl)-5,6-dihydro[1,2,4]triazolo[4,3-a]pyrazin-7(8H)-yl]carbonyl}piperidin-1-yl]quinoline-3-carbonitrile]
IC50: 9.4 nM

C[C@@H]1CN(c2c(C#N)cnc3ncc(Br)cc23)CC[C@@H]1C(=O)N1CCn2c(nnc2C(F)(F)F)C1 [Example 30, 6-bromo-4-[(3S,4S)-3-methyl-4-{[3-(trifluoromethyl)-5,6-dihydro[1,2,4]triazolo[4,3-a]pyrazin-7(8H)-yl]carbonyl}piperidin-1-yl]-1,8-naphthyridine-3-carbonitrile]
IC50: 30 nM

C[C@@H]1CN(c2c(C#N)cnc3cnc(F)cc23)CC[C@@H]1C(=O)N1CCn2c(nnc2C(F)(F)F)C1 [Example 31, 6-fluoro-4-[(3S,4S)-3-methyl-4-{[3-(trifluoromethyl)-5,6-dihydro[1,2,4]triazolo[4,3-a]pyrazin-7(8H)-yl]carbonyl}piperidin-1-yl]-1,7-naphthyridine-3-carbonitrile]
IC50: 2.6 nM

COc1ccc2nc(C)c(C#N)c(N3CC[C@H](C(=O)N4CCn5c(nnc5C(F)(F)F)C4)[C@H](C)C3)c2c1 [Example 32, 6-methoxy-2-methyl-4-[(3S,4S)-3-methyl-4-{[3-(trifluoromethyl)-5,6-dihydro[1,2,4]triazolo[4,3-a]pyrazin-7(8H)-yl]carbonyl}piperidin-1-yl]quinoline-3-carbonitrile]
IC50: 2.9 nM

C[C@@H]1CN(c2c(C#N)cnc3cccnc23)CC[C@@H]1C(=O)N1CCn2c(nnc2C(F)(F)F)C1 [Example 33, 4-[(3S,4S)-3-methyl-4-{[3-(trifluoromethyl)-5,6-dihydro[1,2,4]triazolo[4,3-a]pyrazin-7(8H)-yl]carobnyl}piperidin-1-yl]-1,5-naphthyridine-3-carbonitrile]
IC50: 1.3 nM

COc1ccc2c(N3CC[C@H](C(=O)N4CCn5c(nnc5C(F)(F)F)C4)[C@H](C)C3)c(C#N)c(C)nc2c1 [Example 34, 7-methoxy-2-methyl-4-[(3S,4S)-3-methyl-4-{[3-(trifluoromethyl)-5,6-dihdyro[1,2,4]triazolo[4,3-a]pyrazin-7(8H)-yl]carbonyl}piperidin-1-yl]quinoline-3-carbonitrile]
IC50: 0.89 nM

COc1cccc2nc(C)c(C#N)c(N3CC[C@H](C(=O)N4CCn5c(nnc5C(F)(F)F)C4)[C@H](C)C3)c12 [Example 35, 5-methoxy-2-methyl-4-[(3S,4S)-3-methyl-4-{[3-(trifluoromethyl)-5,6-dihydro[1,2,4]triazolo[4,3-a]pyrazin-7(8H)-yl]carbonyl}piperidin-1-yl]quinoline-3-carbonitrile]
IC50: 1.4 nM

C[C@@H]1CN(c2c(C#N)cnc3c(F)c(OC(F)F)ccc23)CC[C@@H]1C(=O)N1CCn2c(nnc2C(F)(F)F)C1 [Example 36, 7-(difluoromethoxy)-8-fluoro-4-[(3S,4S)-3-methyl-4-{[3-(trifluoromethyl)-5,6-dihdyro[1,2,4]triazolo[4,3-a]pyrazin-7(8H)-yl]carbonyl}piperidin-1-yl]quinoline-3-carbonitrile]
IC50: 0.4 nM
